Assay results reported in article PMC3994986 (Pigment cell & melanoma research, 2012).
One block for each substance: values may come before it. Ends that are not written are not given here.

Key:
[1] = test system: pERK (HEK293 cells expressing MC1R); assay type: cell-based, human; details: PKA inhibitor H89; 300 nM HBD3 (Figure 2C and D); NDP-MSH (Figure S2D)
[2] = test system: MC1R variants D84E, V92M, R142H, R151C, R160W, D294H; assay type: cell-based, human
NR4A receptor family = details: ref Smith et al., 2008; cited from earlier work
MC1R variant receptors = details: ref Beaumont et al., 2005, 2007; cited from earlier work
[3] = test system: MC1R variants in HBL human melanoma cells; details: ref Herraiz et al., 2009, 2011; cited from earlier work
mouse Mc1r = details: ref Candille et al., 2007, cited from earlier work
dog Mc1r = details: ref Candille et al., 2007; cited from earlier work
[4] = test system: mouse melan-a melanocytes; details: concentrations up to 1uM, ref Candille et al., 2007; cited from earlier work
MAPK signalling = details: ref Busca et al., 2000; cited from earlier work
human MC1R [5] = target: T1, human MC1R (Homo sapiens, UniProt Q01726); test: cAMP accumulation in HEK293 cells stably expressing human MC1R wild type; assay type: cell-based; details: for agonist character for MC1R-mediated cAMP signalling: HEK cells expressing human MC1R, relative to NDP-MSH
human MC1R [6] = target: T1, human MC1R; assay type: cell-based
MC1R [7] = test: Inhibition of α-MSH-induced cAMP; assay type: cell-based; details: Figure S1H
HEK293 control cells = test: pERK response in control HEK293 cells; assay type: cell-based, human; details: Figure S2B and E; ligand not given
MC1R [8] = details: ref Candille et al., 2007; cited from earlier work

T1 sequence (Q01726 whole entry): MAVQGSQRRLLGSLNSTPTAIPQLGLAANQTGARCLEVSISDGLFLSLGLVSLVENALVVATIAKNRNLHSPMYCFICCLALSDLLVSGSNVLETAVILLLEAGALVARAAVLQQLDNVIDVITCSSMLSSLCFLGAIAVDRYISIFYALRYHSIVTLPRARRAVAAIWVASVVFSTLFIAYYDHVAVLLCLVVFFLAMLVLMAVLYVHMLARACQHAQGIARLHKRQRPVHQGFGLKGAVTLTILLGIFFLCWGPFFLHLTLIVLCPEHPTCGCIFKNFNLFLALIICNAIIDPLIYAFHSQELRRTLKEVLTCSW

Substance: NDP- melanocyte stimulating hormone [NDP-MSH]
PKA dependence of MAPK activation [1]: This was also the case for NDP-MSH activation of MAPK
induction of pERK over basal levels by variant receptors ([2]; 10 nM NDP-MSH, 5 min, 2–3 independent experiments, Figure 3A, S3A): all variant receptors show an induction of pERK over the basal levels
average pERK increase over basal levels, combined variant receptor cells ([2]; 10 nM NDP-MSH, 5 min, mean, n ≥ 3, normalized to GAPDH): 2.7 fold
pERK of combined variant receptor clones compared to control cells ([2]; 10 nM NDP-MSH, 5 min, n ≥ 3, t-test): significant increase compared to the levels of pERK in control cells
induction of the NR4A receptor family (NR4A receptor family): PKC and p38 are involved in the NDP-MSH induction of the NR4A receptor family
cAMP response of MC1R variant receptors (MC1R variant receptors): impaired cAMP responses
MAPK activation by variant receptors versus wild-type MC1R [3]: able to activate MAPK as efficiently as wild-type MC1R

Substance: β-defensin 103 [CBD103]
Ki (mouse Mc1r; mouse Mc1r): 15.1 nM
binding to mouse Mc1r (mouse Mc1r): able to bind to dog and mouse Mc1r
binding to dog Mc1r (dog Mc1r): able to bind to dog and mouse Mc1r
cAMP induction in mouse melanocytes [4]: did not induce cAMP

Substance: alpha-melanocyte stimulating hormone (SYSMEHFRWGKPV; ends and bridges not checked; UniProt P01189 138-150, looked up) [α-MSH]
induction of MAPK signalling (MAPK signalling): induce MAPK signalling

agonist character for MC1R-mediated cAMP signalling (human MC1R [5]; listed as β-defensin 3): weak partial agonist for cAMP signalling
competitive inhibition of NDP-MSH relative to ASIP-YY (cAMP) (human MC1R [6]): weaker competitive inhibitor to NDP-MSH
Substance: human β-defensin 3 (GIINTLQKYYCRVRGGRCAVLSCLPKEEQIGKCSTRGRKCCRRKK; ends and bridges not checked; cysteine pairing not given here; UniProt P81534 23-67, looked up) [HBD3]
cAMP induction compared to 100 nM ASIP-YY (human MC1R [5]; 300 nM HBD3, Figure S1E and F): significant increase compared to 100 nM ASIP-YY
agonist character for MC1R-mediated cAMP signalling (human MC1R [5]): partial agonist, with both agonistic and antagonistic effects on cAMP signalling
inhibition of 1 nM NDP-MSH-induced cAMP (human MC1R [6]; 100 or 300 nM HBD3, two MC1R-expressing HEK clones (WTe, WT#21), 5–10 min, n = 3): able to inhibit the level of 1 nM NDP-MSH-induced cAMP
effect of increased concentration on level of inhibition (human MC1R [6]; 100 vs 300 nM HBD3, 1 nM NDP-MSH): did not significantly increase the level of inhibition
competitive antagonism of α-MSH induction of cAMP (MC1R [7]): able to act as a competitive antagonist for α-MSH induction of cAMP
pERK induction in control cells (HEK293 control cells): no induction observed in control cells
activation of ERK by variants ([2]; 300 nM HBD3, 5 min, exception of R151C and D84E, 2–3 independent experiments, Figure 3A, S3B): With the exception of R151C and D84E, HBD3 stimulation produced a similar activation of ERK by variants
binding to MC1R (MC1R [8]): found to bind with high affinity to the melanocortin-1 receptor
displacement of NDP-MSH in ligand-binding assays (MC1R [8]): displace NDP-MSH in ligand-binding assays
